ChEMBL document CHEMBL1944581, “Synthesis and characterization of fluorinated homocysteine derivatives as potential molecular probes for ¹⁹F magnetic resonance spectroscopy and imaging” (Bioorg Med Chem Lett, 2011)

Columns and labels:
Type in all cases: ADME
Albumin [1] = molecular target: T1, Albumin (Homo sapiens, UniProt P02768); experiment: Binding affinity to human serum albumin in phosphate buffer assessed as N-homocysteinylation of protein by MALDI-TOF scpectroscopy; settings: isolated protein
Albumin [2] = molecular target: T1, Albumin; experiment: Binding affinity to human serum albumin in human plasma assessed as protein N-homocysteinylation level at 37 degC for 27 hrs by SDS-PAGE-based 19F-NMR spectroscopy
Albumin [3] = molecular target: T1, Albumin; experiment: Binding affinity to human serum albumin in phosphate buffer assessed as N-homocysteinylation of protein at 6.2 mM at pH 7.43 at 37 degC after 18 hrs by SDS-PAGE-based 19F-NMR spectroscopy; settings: isolated protein, pH 7.43, 18 h, 6200 µM

Measured: Activity

T1 sequence (P02768 whole entry): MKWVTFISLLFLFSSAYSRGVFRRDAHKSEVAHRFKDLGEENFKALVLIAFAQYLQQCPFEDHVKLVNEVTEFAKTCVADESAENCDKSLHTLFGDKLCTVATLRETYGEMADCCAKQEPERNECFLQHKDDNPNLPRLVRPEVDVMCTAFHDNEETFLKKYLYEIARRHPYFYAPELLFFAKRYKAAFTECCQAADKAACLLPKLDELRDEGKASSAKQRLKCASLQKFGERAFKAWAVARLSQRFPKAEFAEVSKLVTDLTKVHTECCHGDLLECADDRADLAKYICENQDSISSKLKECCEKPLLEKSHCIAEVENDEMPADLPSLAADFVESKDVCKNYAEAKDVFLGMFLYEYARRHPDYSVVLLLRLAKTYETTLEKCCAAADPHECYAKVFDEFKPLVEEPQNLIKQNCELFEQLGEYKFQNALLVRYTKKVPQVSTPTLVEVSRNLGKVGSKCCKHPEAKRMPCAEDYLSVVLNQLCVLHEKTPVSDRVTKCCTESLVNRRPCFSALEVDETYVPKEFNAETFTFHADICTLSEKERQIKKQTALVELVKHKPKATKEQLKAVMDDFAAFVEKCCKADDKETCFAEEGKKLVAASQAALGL

O=C1SCCC1NC(=O)C(F)(F)F (stereo not drawn)
Active: all assays above
